According to patent publication US12195457B2, “Aromatic ring derivative as immunoregulation and preparation method and application of aromatic ring derivative” (SHANGHAI JEMINCARE PHARMACEUTICALS CO., LTD, priority 2018, dated 2025):

What was measured:
[1] = molecular target: T1, S1P1 (Homo sapiens, UniProt P21453); assay: S1P1 receptor internalization (FACS, CHO-K1 EDG1 cells); assay type: cell-based; conditions: 2 hours incubation; read-out: S1P1 internalized EC50
T1 construct: host or cells: CHO-K1
Experimental: 1. CHO-K1 DEG1 cells (PathHunter® CHO-K1 EDG1 β-Arrestin Cell Line, supplier: DiscoverX, catalog number: 93-0207C2), and culture medium was removed (F12 medium 1000 mL, 10% FBS, 800 μg/mL G418, 300 μg/mL Hygromycin, 1% Glutamax and 1% Pen/Strep), the cells were washed with 2 mL of DPBS, 5 mL of cell dispersion (Invitrogen-13151014) was added to disperse the cells, the cells were incubated in an incubator at 37° C. for 1-2 minutes. The flask was gently patted to make the cells fall off. 5 mL of growth medium was added, and pipette was gently blown to suspend the cells. Cell counting was performed using Vi-Cell. The mixture was centrifuged at 1000 rpm for 5 minutes at room temperature, the supernatant was gently poured out, and the cells in FACS buffer were resuspended to a concentration of 1.5e6 cells per mL. 2. S1P and compounds were diluted with DMSO in a 384-well plate, and a volume of 500 nL was transferred to a 96 V-well plate (Cat #Axygen-WIPP02280). 3. 50 μL of cells were added to a 96-well plate; 4. The 96-well plate was incubated in a 37° C. 5% CO2 incubator for 2 hours. 5. The cells were centrifuged at room temperature at 1500 rpm for 5 minutes to remove the supernatant. 6. 100 μL of FACS buffer was added to the resuspended cells, centrifuged at 1500 rpm for 5 minutes, and the supernatant was removed. 7. The anti-human S1P1/EDG-1-Alex647 (R&D-FAB1864R) and anti-IgG2B-Alex647 (R&D-IC0041R) antibodies were diluted 200 times with FACS buffer. 8. 50 μL of antibody was added to 96 wells, and the plates were transferred to 4° C. for 30 minutes. 9. The cells were centrifuged at room temperature at 1500 rpm for 5 minutes to remove the supernatant. 10. 100 μL of FACS buffer was added to the resuspended cells. 11. The cells were centrifuged at 4° C. at 1500 rpm for 5 minutes to remove the supernatant. 12. After washing, the cells were resuspended in 50 μL of FACS buffer per well. 13. Cell samples were read using iQue Screener PLUS-VBR.

[2] = molecular target: T1, S1P1; assay: S1P1 mediated β-arrestin reporter activation (PathHunter CHO-K1 EDG1 β-Arrestin Cell Line); assay type: cell-based; conditions: 90 minutes incubation at 37° C.
Experimental: The cell line used in the test was PathHunter® CHO-K1 EDG1 β-Arrestin Cell Line, supplier: DiscoverX, catalog number: 93-0207C2. According to the supplier's instructions, the cells were added to the test plate according to 25 μL cell suspension containing 5000 cells per well, and cultured at 37° C. for 20 hours. Compounds of 10 concentrations diluted 4 times were added to the cell culture medium and incubated at 37° C. for 90 minutes. The detection solution was prepared, 12 μL per well, incubated at room temperature for 60 minutes, the plate was read on an Envision plate reader. The data was analyzed by nonlinear regression to determine the EC50 of β-arrestin activity.

[3] = In vivo pharmacokinetics in rats, intravenous injection and oral administration; set-up: species or system Sprague Dawley rats; conditions: rat; for AUC(0-inf) / clearance / half-life / Cmax: male, Sprague-Dawley, plasma
Experimental: In this experimental embodiment, in vivo pharmacokinetic evaluation was performed in rats by intravenous injection and oral administration.
Experimental methods and conditions: male Sprague Dawley rats were given the test compounds 1 mg/kg (solvent 5% DMSO/15% Solutol/80% Saline) by intravenous injection and 1 mg/kg (solvent 0.5% MC) by oral gavage respectively. 5 min, 15 min, 30 min, 1 hr, 2 hr, 4 hr, 6 hr, 8 hr, 24 hr after administration, blood was collected from submandibular vein, each sample was collected about 0.20 mL, and heparin sodium was used for anti coagulation. After collection, the sample was placed on ice, and the blood was centrifuged to be measured within one hour. Blood drug concentration in plasma was detected by liquid chromatography tandem mass spectrometry (LC/MS/MS), and the pharmacokinetic parameters were calculated by Phoenix WinNonlin software.

[4] = molecular target: T1, S1P1; assay: S1P1 mediated inhibition of forskolin induced cAMP (PathHunter CHO-K1 EDG1 cells); assay type: cell-based
Experimental: The cell line used in the test was PathHunter® CHO-K1 EDG1 β-Arrestin Cell Line, supplier: DiscoverX, catalog number: 93-0207C2. The inhibitory effect of compounds on S1P1 mediated forskolin induced cAMP activity was evaluated.
Different concentrations of compounds and a final concentration of 0.6 μM forskolin were added to the test plate wells for each test, and the mixture was centrifuged at 1000 rpm for 10 seconds. A frozen cell was taken, washed twice with HBSS buffer and resuspended. 5000 cells were added to test plates per well, the mixture was shaked for 20 seconds, centrifuged at 1000 rpm for 10 seconds, and incubated at room temperature for 60 minutes. Anti-cAMP-Eu^2+-Cryptate and cAMP-d2 were added. Then the mixture was shaked for 20 seconds, centrifuged at 1000 rpm for 10 seconds, incubated at room temperature for 60 minutes, and the plate was read on an Envision plate reader. The data was analyzed by nonlinear regression to determine the EC50 of the compounds for the inhibition of cAMP induced by forskolin.

[5] = intravenous administration 1 mg/kg

T1 sequence (P21453 whole entry): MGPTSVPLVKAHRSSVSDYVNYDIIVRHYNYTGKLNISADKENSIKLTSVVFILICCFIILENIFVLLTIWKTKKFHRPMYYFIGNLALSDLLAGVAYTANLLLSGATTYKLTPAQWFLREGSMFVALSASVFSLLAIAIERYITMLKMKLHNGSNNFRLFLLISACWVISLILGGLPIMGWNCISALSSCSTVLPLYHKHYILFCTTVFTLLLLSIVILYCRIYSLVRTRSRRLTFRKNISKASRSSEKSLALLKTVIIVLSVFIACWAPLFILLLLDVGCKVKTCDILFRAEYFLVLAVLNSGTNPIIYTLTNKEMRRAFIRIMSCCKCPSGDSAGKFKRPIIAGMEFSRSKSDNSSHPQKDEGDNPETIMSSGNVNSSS

Row | Compound | EC50 [2] [nM] | EC50 [4] [nM] | also measured
1 | O=C(O)CCc1[nH]c2ccc(OCc3ccc(C4CCCC4)c(C(F)(F)F)c3)cc2c1F [Compound 14] | 1.86 | 0.07 | EC50 [1]: 0.14 nM; AUC(0-inf) [3, 5]: 10800 ng·h/mL; clearance [3, 5]: 1.55 mL/min/kg; half-life [3, 5]: 4.1 h; AUC(0-inf) ([3]; oral administration 1 mg/kg): 2340 ng·h/mL; Cmax ([3]; oral administration 1 mg/kg): 258 ng/mL; half-life ([3]; oral administration 1 mg/kg): 4 h; F ([3]; oral administration 1 mg/kg): 21.3%
2 | O=C(O)CCn1ccc2cc(OCc3ccc(C4CCCC4)c(C(F)(F)F)c3)ccc21 [Compound 12] | 1.96 | 0.65 | 
3 | CCc1c(CCC(=O)O)[nH]c2ccc(OCc3ccc(C4CCCC4)c(C(F)(F)F)c3)cc12 [Compound 2] | 1.62 | 0.07 | EC50 [1]: 0.32 nM
4 | O=C(O)CCc1cc2cc(OCc3ccc(C4CCCC4)c(C(F)(F)F)c3)ccc2[nH]1 [Compound 1] | 0.95 | < 0.05 | 
5 | O=C(O)CCc1nc2cc(OCc3ccc(C4CCCC4)c(C(F)(F)F)c3)ccc2[nH]1 [Compound 6] |  | 0.16 | 
6 | O=C(O)C[C@H]1CCc2c1[nH]c1ccc(OCc3ccc(C4CCCC4)c(C(F)(F)F)c3)cc21 [APD334, reference compound] |  | 2.07 | EC50 [1]: 6.26 nM; AUC(0-inf) [3, 5]: 9410 ng·h/mL; clearance [3, 5]: 1.83 mL/min/kg; half-life [3, 5]: 5.2 h; AUC(0-inf) ([3]; oral administration 1 mg/kg): 4440 ng·h/mL; Cmax ([3]; oral administration 1 mg/kg): 341 ng/mL; half-life ([3]; oral administration 1 mg/kg): 5.5 h; F ([3]; oral administration 1 mg/kg): 46.3%
7 | Cc1c(CCC(=O)O)[nH]c2ccc(OCc3ccc(OC4CCCC4)c(C(F)(F)F)c3)cc12 [Compound 38] | 1.11 |  | 
8 | O=C(O)CCc1[nH]c2ccc(OCc3ccc(C4CCC4)c(C(F)(F)F)c3)cc2c1Cl [Compound 22] | 1.65 | 0.11 | 
9 | O=C(O)CCc1cc2cc(OCc3ccc(C4CCCC4)c(C(F)(F)F)c3)c(F)cc2[nH]1 [Compound 18] | 1.1 | 0.08 | EC50 [1]: 0.69 nM
10 | O=C(O)CCc1[nH]c2ccc(OCc3ccc(C4CCOC4)c(C(F)(F)F)c3)cc2c1Cl (centres unmarked) [Compound 26] | 1.11 | 0.0041 | 
11 | O=C(O)CCc1cc2cc(OCc3ccc(C4CCOC4)c(C(F)(F)F)c3)ccc2[nH]1 (centres unmarked) [Compound 31] | 2.63 | 0.18 | 
12 | Cc1c(CCC(=O)O)[nH]c2ccc(OCc3cnc(C4CCCC4)c(C(F)(F)F)c3)cc12 [Compound 40] | 1.18 |  | 
13 | O=C(O)CCc1[nH]c2ccc(OCc3ccc(C4=CCCC4)c(C(F)(F)F)c3)cc2c1Cl [Compound 21] | 2.26 | 0.035 | 
14 | O=C(O)CCc1[nH]c2ccc(OCc3ccc(C4CCOCC4)c(C(F)(F)F)c3)cc2c1Cl [Compound 27] | 1.03 | 0.0021 | 
15 | Cc1c(CCC(=O)O)[nH]c2ccc(OCc3ccc(C4CCOC4)c(C(F)(F)F)c3)cc12 (centres unmarked) [Compound 32] | 1.47 | 0.56 | 
16 | O=C(O)CCc1cc2cc(OCc3ccc(OC4CCCC4)c(C(F)(F)F)c3)ccc2[nH]1 [Compound 37] | 1.72 | 0.2 | 
17 | O=C(O)CCc1[nH]c2ccc(OCc3ccc(OC4CCCC4)c(C(F)(F)F)c3)cc2c1F [Compound 39] | 0.76 | 0.027 | 
18 | O=C(O)CCc1[nH]c2ccc(OCc3cnc(C4CCCC4)c(C(F)(F)F)c3)cc2c1Cl [Compound 25] | 1.23 | 0.0017 | 

The next lines start with results.

Row | EC50 [2] [nM] | EC50 [4] [nM] | Compound | also measured
19 | 1.78 | 0.21 | N#Cc1c(CCC(=O)O)[nH]c2ccc(OCc3ccc(C4CCCC4)c(C(F)(F)F)c3)cc12 [Compound 17] | 
20 | 3.82 | 0.032 | O=C(O)CCc1[nH]c2ccc(OCc3ccc(C4CCCCC4)c(C(F)(F)F)c3)cc2c1Cl [Compound 23] | 
21 |  | 0.5 | O=C(O)CCn1cnc2cc(OCc3ccc(C4CCCC4)c(C(F)(F)F)c3)ccc21 [Compound 4] | 
22 | 0.62 | 0.15 | O=C(O)CCc1[nH]c2ccc(OCc3cnc(C4CCCC4)c(C(F)(F)F)c3)cc2c1F [Compound 30] | 
23 | 2.08 |  | O=C(O)CCc1cc2cc(OCc3ccc(N4CCCC4)c(C(F)(F)F)c3)ccc2[nH]1 [Compound 28] | 
24 | 1.73 | 0.0072 | O=C(O)CCc1[nH]c2ccc(OCc3ccc(OC4CCCC4)c(C(F)(F)F)c3)cc2c1Cl [Compound 24] | 
25 | 5.35 |  | O=C(O)CCc1cc2cc(OCc3ccc(C4CCOCC4)c(C(F)(F)F)c3)ccc2[nH]1 [Compound 34] | 
26 | 0.88 | 0.34 | Cc1c(CCC(=O)O)[nH]c2ccc(OCc3ccc(C4CCOCC4)c(C(F)(F)F)c3)cc12 [Compound 35] | 
27 | 2.15 |  | O=C(O)CCc1cc2cc(OCc3cnc(C4CCCC4)c(C(F)(F)F)c3)ccc2[nH]1 [Compound 29] | 
28 | 0.85 | 0.3 | O=C(O)CCc1[nH]c2ccc(OCc3ccc(C4CCOCC4)c(C(F)(F)F)c3)cc2c1F [Compound 36] | 
29 | 1.1 | 0.057 | O=C(O)CCc1[nH]c2ccc(OCc3ccc(C4CCOC4)c(C(F)(F)F)c3)cc2c1F (centres unmarked) [Compound 33] | 
